From US20250346629A1, “USE OF D-ENANTIOMERIC PEPTIDE LIGANDS OF MONOMERIC ALPHA-SYNUCLEIN FOR THE THERAPY OF VARIOUS SYNUCLEINOPATHIES” (PRIAVOID GMBH, priority 2021, published 2025)
Square brackets hold non-standard residues; d marks the D form. Peptide text beside a SMILES is read from it.

Columns and labels:
WT α-syn = WT α-syn (Homo sapiens, UniProt P37840); assay: Single cycle SPR experiment of WT α-syn on CM5-immobilized peptides (FIG. 8); settings: 1:1 binding model fit, CM5 chip, PBS pH 7.4, 0.005% Tween-20
Protocol: Each peptide was immobilized on a CM5 sensor chip surface. WT α-syn was injected in a concentration range of 30-500 nM in PBS, PH 7.4, 0.005% (v/v) Tween-20. Regeneration was carried out after every cycle with 2 M Gua-HCl for 2×30 sec. The KDs were determined with a 1:1 binding model fit, as follows: SVD-1a: 15.7 nM; SVD-6a: 14.0 nM; SVD-10a: 12.3 nM.

15N-labeled α-syn = 15N-labeled α-syn (Homo sapiens, UniProt P37840); assay: NMR analysis (HSQC, PRE) of 15N-labeled α-syn with SVD-1a (FIG. 12); assay type: binding; settings: 25 μM α-syn : SVD-1a 1:1, PBS pH 7.4, 10° C.
Protocol: Analogs of SVD-1a spin-labeled with nitroxyl radicals were produced by reacting (1-oxyl-2,2,5,5-tetramethyl-Δ3-pyrroline-3-methyl) methanethiosulfonate (MTSL) (Toronto Research Chemicals, USA) with SVD-1a_Cys, leading to covalent bonding of the nitroxyl radical spin label MTSL to the C-terminal D-cysteine residue. A fivefold molar excess of MTSL relative to the peptide, i.e. ˜4 mg MTSL (˜15 μmol) was dissolved in 90 μl N,N-dimethylformamide (DMF) and mixed with 810 μl 200 mM HEPES/NaOH buffer, pH 7.6. The solution was then added to ˜5 mg (˜3 μmol) of lyophilized SVD-1a_Cys. […]
The samples were produced at final concentrations of 25 μM full-length ^15N-labeled acetyl-α-syn in the absence (reference) and in the presence of an equimolar amount of SVD-1a (not isotope-labeled, therefore invisible to NMR) in PBS buffer, pH 7.4, with addition of 5% D2O as internal reference. 2D-^1H-^15N-HSQC spectra were recorded back-to-back with a Bruker AVANCE NEO spectrometer (Bruker, USA) at 1200 MHz proton Larmor frequency. […]
The NMR datasets were processed using the Bruker TopSpin software (Version 4.1.1) and visualized using CcpNmr Analysis (v2.4.2) (50). […] From the residue-specific changes in chemical shift in the ^1H and ^15N dimensions, an absolute change in chemical shift was calculated according to the following formula: […]

- Kd (WT α-syn): 15.7 nM
Structure (SMILES): CC[C@@H](C)[C@@H](NC(=O)[C@@H](Cc1c[nH]cn1)NC(=O)[C@@H](CCC(=O)O)NC(=O)[C@@H](CCC(N)=O)NC(=O)[C@@H](Cc1c[nH]c2ccccc12)NC(=O)[C@@H](Cc1ccc(O)cc1)NC(=O)[C@H](NC(=O)[C@@H](CCC(=O)O)NC(=O)[C@@H](Cc1c[nH]cn1)NC(=O)[C@H](NC(=O)[C@H]1CCCN1C(=O)[C@@H](CC(C)C)NC(=O)[C@H](N)CCCNC(=N)N)[C@H](C)O)[C@H](C)O)C(=O)N[C@H](Cc1c[nH]c2ccccc12)C(=O)N[C@H](Cc1c[nH]cn1)C(=O)N[C@H](C)C(=O)N[C@H](CCCNC(=N)N)C(=O)N[C@H](CCCNC(=N)N)C(=O)N[C@H](CCCNC(=N)N)C(=O)N[C@H](CCCNC(=N)N)C(=O)N[C@H](CCCNC(=N)N)C(N)=O [SVD-1a, rlpthetywqehiwharrrrr] (H-[dR][dL][dP][dT][dH][dE][dT][dY][dW][dQ][dE][dH][dI][dW][dH][dA][dR][dR][dR][dR][dR]-NH2)
- binding region on α-syn (PRE intensity ratios) (15N-labeled α-syn): somewhat more pronounced (transient) bonding interaction of SVD-1a with residues in the C-terminal region of α-syn
